Legend:
CTSL = target: T1, CTSL (Homo sapiens, UniProt P07711); assay: Human recombinant cathepsins isolated enzyme assay, CTSL; assay type: biochemical; conditions: read-out: CTSL Enz (IC50: μM)
T1 construct: purchased R&D Systems
Description: The protocol for evaluating the inhibitory potency of compounds against other cathepsins referred to the CTSC activity assay. Recombinant human CTSB, CTSL, CTSS and CTSK for testing were also purchased from R&D Systems Biotechnology Company. Recombinant human Cat G, NE, and PR3 For testing were purchased from MedChemExpress. A multi-functional microplate reader was used to measure the absorption of Z-Leu-Arg-AMC at excitation/emission wavelengths of 380/460 nm to assess the activity changes of CTSB and CTSL, while the absorption of MCA-Arg-Pro-Lys-Pro-Val-Glu-NVAL-Trp-Arg-Lys(DNP)-NH2 at 320/405 nm was measured to evaluate the activity changes of CTSS and CTSK. Different assay buffers were prepared for diluting samples and measuring the activities of specific NSPs: a buffer containing 50 mM Tris and 750 mM NaCl (pH 7.4) was used for NE and PR3; a buffer containing 50 mM Tris, 750 mM NaCl, 5 mM EDTA (pH 7.4) was used for Cat G; and a buffer containing 25 mM MES, 50 mM NaCl, 5 mM DTT (pH 6.0) was used for CTSC. Synthetic substrates were employed to assess the activities of NSPs and CTSC: H-Gly-Arg-AMC for CTSC, N-MeSuc-Ala-Ala-Pro-Val-pNA for NE, aminobenzoyl-Val-Ala-Asp-Cys-Ala-Asp-Gln-ethylenediamine 2,4-dinitrophenyl for PR3, and N-Suc-Ala-Ala-Pro-Phe-pNA for Cat G. Each group of tests was independently repeated at least 3 times, and IC50 values were calculated using SPSS 10.0.

Cat G = assay: NSPs activity in U937 cells after 5 days of treatment, Cat G; assay type: cell-based, human; conditions: U937, 10 μM
Protocol: U937 cells in the logarithmic growth phase were collected and equally divided into six portions. Four of these portions were treated with DMSO solutions of the test compound at varying concentrations to achieve final concentrations of 1.25, 2.5, 5, and 10 μM, respectively. An equal volume of DMSO was added to one portion as a blank control, while another portion treated with a DMSO solution of AZD7986 served as a positive control. The cells were cultured under standard U937 conditions for 5 consecutive days, with daily medium changes and fresh compound treatments administered using the same protocol. Following 5 days of treatment, cells were harvested, washed twice thoroughly with phosphate-buffered saline, and lysed in phosphate-buffered saline containing 1% Triton X-100. The lysates were centrifuged to collect the supernatant, and protein concentrations were determined as previously described to ensure equal total protein loading across all samples. The prepared samples were stored at −20 °C until further analysis. Different assay buffers were prepared for diluting samples and measuring the activities of specific NSPs: a buffer containing 50 mM Tris and 750 mM NaCl (pH 7.4) was used for NE and PR3; a buffer containing 50 mM Tris, 750 mM NaCl, 5 mM EDTA (pH 7.4) was used for Cat G; and a buffer containing 25 mM MES, 50 mM NaCl, 5 mM DTT (pH 6.0) was used for CTSC. […]

[1] = tested on: IL-1β, TNF-α, MCP-1, CXCL2 in serum; assay: AIA model, serum cytokines by ELISA; assay type: in vivo, Sprague-Dawley rats; conditions: rat AIA, high-dose group (60 mg/kg)
Protocol: (§1) Thirty 4-week-old male Sprague-Dawley rats (weighing 120–130 g) were randomly divided into 6 groups (5 rats per group) after 1 week of adaptive feeding, namely the normal group, model group, low-dose experimental group (15 mg/kg), medium-dose experimental group (30 mg/kg), high-dose experimental group (60 mg/kg), and positive control group (30 mg/kg). Starting from Day 0 of the experiment, rats in the administration groups and model group were injected intradermally with 0.1 mL of CFA into the left hind paw to induce AIA, while rats in the normal group were injected intradermally with an equal volume (0.1 mL) of normal saline as a control. After 13 consecutive days of feeding, rats treated with CFA successfully developed typical AIA symptoms. […] During the experiment, the body weight, mental state, activity ability, hair color changes, and paw appearance changes of the rats were observed and recorded daily. In addition, on Day 0 of the experiment (baseline period), the basic paw volume of all rats was accurately measured using a plethysmometer, which served as a reference standard for subsequent evaluation of inflammation severity. From Day 13 to Day 28 of the experiment, the paw volume of the rats was measured repeatedly every 3 days. The degree of paw swelling was quantified by calculating the change in paw volume relative to the baseline. […] The cytokine levels in serum were measured. […]

CTSC and NSPs = assay: AIA model, serum CTSC and NSPs activities, stated together; assay type: in vivo, Sprague-Dawley rats; conditions: rat AIA, low-dose (15 mg/kg) and medium-dose (30 mg/kg) groups
Protocol: as §1

Dipeptidyl Peptidase 8 = Dipeptidyl Peptidase 8 (Homo sapiens, UniProt Q6V1X1); assay: Recombinant dipeptidyl peptidases isolated enzyme assay, DPP8; assay type: biochemical; conditions: read-out: Dipeptidyl Peptidase 8 Enz (IC50: μM)
Sequence of Dipeptidyl Peptidase 8 (Q6V1X1 whole entry, species assumed): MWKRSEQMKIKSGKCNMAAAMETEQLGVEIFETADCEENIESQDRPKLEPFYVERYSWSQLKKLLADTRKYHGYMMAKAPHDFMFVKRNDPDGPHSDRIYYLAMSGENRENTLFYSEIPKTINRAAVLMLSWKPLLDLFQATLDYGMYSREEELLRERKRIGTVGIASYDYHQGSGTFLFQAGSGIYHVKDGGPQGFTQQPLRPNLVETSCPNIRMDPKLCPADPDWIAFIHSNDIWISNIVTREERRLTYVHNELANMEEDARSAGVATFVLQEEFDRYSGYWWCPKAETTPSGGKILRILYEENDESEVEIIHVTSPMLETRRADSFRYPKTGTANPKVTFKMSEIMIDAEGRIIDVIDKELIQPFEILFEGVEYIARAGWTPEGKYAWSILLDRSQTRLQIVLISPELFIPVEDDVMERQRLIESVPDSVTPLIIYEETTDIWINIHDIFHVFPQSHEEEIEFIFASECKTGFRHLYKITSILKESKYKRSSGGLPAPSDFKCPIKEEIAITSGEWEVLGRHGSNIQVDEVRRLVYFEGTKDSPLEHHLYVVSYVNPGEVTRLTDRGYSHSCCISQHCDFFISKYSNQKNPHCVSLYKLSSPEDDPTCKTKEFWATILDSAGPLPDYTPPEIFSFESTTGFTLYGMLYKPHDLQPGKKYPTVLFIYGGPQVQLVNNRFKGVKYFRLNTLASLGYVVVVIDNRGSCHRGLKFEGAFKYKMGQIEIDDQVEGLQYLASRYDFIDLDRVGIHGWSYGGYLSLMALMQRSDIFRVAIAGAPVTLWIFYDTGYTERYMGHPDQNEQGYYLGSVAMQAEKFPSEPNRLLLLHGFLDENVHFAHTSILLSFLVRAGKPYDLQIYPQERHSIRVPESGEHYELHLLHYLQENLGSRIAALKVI
Description: Table 3 Inhibitory effects of marrubiin on dipeptidyl peptidase. | column: Dipeptidyl Peptidase 8 Enz (IC50: μM)

T1 sequence (P07711 114-333): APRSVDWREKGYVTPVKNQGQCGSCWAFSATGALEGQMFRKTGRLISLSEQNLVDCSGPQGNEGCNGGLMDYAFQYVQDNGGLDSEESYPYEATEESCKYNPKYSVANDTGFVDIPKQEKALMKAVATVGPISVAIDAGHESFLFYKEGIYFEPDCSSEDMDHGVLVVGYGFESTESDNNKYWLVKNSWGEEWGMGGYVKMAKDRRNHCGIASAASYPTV

For `C[C@@H]1C[C@H]2OC(=O)[C@@]3(C)CCC[C@@](C)([C@@H]23)[C@@]1(O)CCc1ccoc1` [Marrubiin, marrubiin], the IC50 (CTSL) was 4.4 ± 0.5 µM, the “Cat G activity, % of DMSO group” value (Cat G) was 16.9% and the “serum levels of IL-1β, TNF-α, MCP-1, CXCL2” value [1] was “significantly lower than those in model group and control group”. For the same molecule, the “serum activities of CTSC and NSPs” value (CTSC and NSPs) was “no significant reduction effect” and the IC50 (Dipeptidyl Peptidase 8) was greater than 10 µM.
